Data set [1] can be described thus: Maximum solubility of clobetasol propionate in solvent oils, UV assaying method. The data set is classed as physicochemical. On the procedure:
(§1) The maximum solubility of clobetasol propionate was studied in various solvent oils according to the invention, in order to allow the choice most suitable for the concentration of active agent to be solubilized.
It is measured by the UV assaying method.
Saturated solutions are prepared according to the following protocol:
0.1% of clobetasol propionate is added to the oily excipient.
The entire mixture is stirred overnight and then left for two hours without stirring.
The solutions for UV-assaying are then prepared by taking the supernatant 0.1 g of this saturated solution is weighed into a 100 ml volumetric flask and then made up to 100 ml with absolute ethanol. The assaying makes it possible to obtain data for maximum solubility of the active agent in the solvent oil under consideration.

The nature of data set [2]: Maximum solubility of clobetasol propionate in solvent oils, assessed visually (clarity/cloudiness). The data set is classed as physicochemical. On the procedure: as §1
The solubility can also be assessed visually. Thus, minute proportions of the active agent are gradually added to the solvent oil with stirring. Visual observation of the clarity of the solution is carried out.

Consider `CCC(=O)O[C@]1(C(=O)CCl)[C@@H](C)C[C@H]2[C@@H]3CCC4=CC(=O)C=C[C@]4(C)[C@@]3(F)[C@@H](O)C[C@@]21C` [clobetasol propionate], for which the “UV Solubility at 266 nm” value in data set [1] (solvent: Cetearyl isononanoate) is given as 0.16%; in data set [1] (solvent: Dioctyl ether), 0.12%; in data set [1] (solvent: Ethyl oleate), 0.79%; in data set [1] (solvent: Isopropyl palmitate) it was 0.17%; in data set [1] (solvent: Oleic acid), 0.45%; in data set [1] (solvent: Oleyl alcohol) it was 0.86%. Also, the Visual solubility is listed as 0.25% in data set [2] (solvent: Caprylic/capric triglycerides, maximum solubility); “insoluble” in data set [2] (solvent: Dioctyl ether); 0.14% in data set [2] (solvent: Isopropyl palmitate, maximum solubility); 0.16% in data set [2] (solvent: Octyldodecanol, maximum solubility).

The values above are taken from patent publication US20110152228A1, “SPRAYABLE PHARMACEUTICAL COMPOSITIONS COMPRISING A CORTICOID AND AN OILY PHASE” (Galderma, S.A., priority 2005, published 2011).
